Square brackets hold non-standard residues; d marks the D form. Peptide text beside a SMILES is read from it. * marks the point of attachment. dOrn = NCCC[C@@H](N)C(=O)O; Octanoyl = CCCCCCCC(=O)*

For the first series, the system named is HL60 promyelocytic leukemia cells. Kind of series: Cytotoxicity assay in HL60 cells (Annexin V FITC / PI flow cytometry). The series is classed as cell-based. As to conditions: 48 hours. A digest of the protocol:
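HL60 cells at 3.5×10^3/well in RPMI + 1.5% FBS exposed to peptides at 0-80 μM final for 48 h at 37 °C. Viability by flow cytometry after Annexin V-FITC/PI staining, gated on FSC vs SSC. % Viability is the fraction that is Annexin V^low and PI^low.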
On the technique in general: In flow cytometry, cells or beads pass a laser one at a time.
On to `CC(C)C[C@@H](NC(=O)[C@@H](CCC(N)=O)NC(=O)[C@@H](C)NC(=O)[C@@H](CC(C)C)NC(=O)[C@@H](CCCNC(=N)N)NC(=O)[C@@H](C)NC(=O)[C@@H](CC(C)C)NC(=O)[C@@H](CCC(N)=O)NC(=O)[C@@H](CCCNC(=N)N)NC(=O)[C@@H](C)NC(=O)[C@@H](CC(C)C)NC(=O)[C@@H](Cc1c[nH]c2ccccc12)NC(=O)[C@H](N)Cc1c[nH]c2ccccc12)C(=O)N[C@H](C)C(=O)O` [BCL-12] (H-[dW][dW][dL][dA][dR][dQ][dL][dA][dR][dL][dA][dQ][dL][dA]-OH; N-terminus and C-terminus assumed), for which the cytotoxic activity result is reported as “no cytotoxic activity”.

The same series, now with this note: 48 hours, 0-80 μM, % Viability (Annexin V low, PI low).
In turn, `CC(C)C[C@@H](NC(=O)[C@@H](Cc1c[nH]c2ccccc12)NC(=O)[C@@H](N)Cc1c[nH]c2ccccc12)C(=O)N[C@H](C)C(=O)N[C@H](CCCNC(=N)N)C(=O)N[C@H](CCC(N)=O)C(=O)N[C@H](CC(C)C)C(=O)N[C@H](C)C(=O)N[C@H](CCCNC(=N)N)C(=O)N[C@H](CC(C)C)C(=O)N[C@H](C)C(=O)N[C@H](CCC(N)=O)C(=O)N[C@H](CC(C)C)C(=O)N[C@H](C)C(=O)N[C@H](CCCCN)C(=O)N[C@H](CC(C)C)C(=O)N[C@@H](C(=O)N1CCC[C@@H]1C(=O)N[C@@H](C(=O)O)C(C)C)[C@H](C)O` [BCL-95] (H-W[dW][dL][dA][dR][dQ][dL][dA][dR][dL][dA][dQ][dL][dA][dK][dL][dT][dP][dV]-OH; N-terminus and C-terminus assumed) returned an EC50 of less than 2000 nM.
Still for that read-out and setting: then `CC(C)C[C@@H](NC(=O)[C@@H](Cc1c[nH]c2ccccc12)NC(=O)[C@H](Cc1c[nH]c2ccccc12)NC(=O)[C@H](N)Cc1ccccc1)C(=O)N[C@H](C)C(=O)N[C@H](CCCNC(=N)N)C(=O)N[C@H](CCC(N)=O)C(=O)N[C@H](CC(C)C)C(=O)N[C@H](C)C(=O)N[C@H](CCCNC(=N)N)C(=O)N[C@H](CC(C)C)C(=O)N[C@H](C)C(=O)N[C@H](CCC(N)=O)C(=O)N[C@H](CC(C)C)C(=O)N[C@H](C)C(=O)N[C@H](CCCCN)C(=O)N[C@H](CC(C)C)C(=O)N[C@@H](C(=O)N1CCC[C@@H]1C(=O)N[C@@H](C(=O)O)C(C)C)[C@H](C)O` [BCL-101] (H-[dF]W[dW][dL][dA][dR][dQ][dL][dA][dR][dL][dA][dQ][dL][dA][dK][dL][dT][dP][dV]-OH; N-terminus and C-terminus assumed), with less than 2000 nM; and `CC(C)C[C@@H](NC(=O)[C@@H](CCCNC(=N)N)NC(=O)[C@@H](C)NC(=O)[C@@H](CC(C)C)NC(=O)[C@@H](CCC(N)=O)NC(=O)[C@@H](CCCNC(=N)N)NC(=O)[C@H](NC(=O)[C@@H](CC(C)C)NC(=O)[C@@H](Cc1c[nH]c2ccccc12)NC(=O)[C@H](N)Cc1c[nH]c2ccccc12)C(C)C)C(=O)N[C@H](C)C(=O)N[C@H](CCC(N)=O)C(=O)N[C@H](CC(C)C)C(=O)N[C@H](C)C(=O)N[C@H](CCCCN)C(=O)N[C@H](CC(C)C)C(=O)N[C@@H](C(=O)N1CCC[C@@H]1C(=O)N[C@@H](C(=O)O)C(C)C)[C@H](C)O` [BCL-91a] (H-[dW][dW][dL][dV][dR][dQ][dL][dA][dR][dL][dA][dQ][dL][dA][dK][dL][dT][dP][dV]-OH; N-terminus and C-terminus assumed), with less than 2000 nM; and `CC(C)C[C@@H](NC(=O)[C@@H](C)NC(=O)[C@@H](C)NC(=O)[C@@H](CC(C)C)NC(=O)[C@@H](CCCNC(=N)N)NC(=O)[C@@H](C)NC(=O)[C@@H](CC(C)C)NC(=O)[C@@H](CCC(N)=O)NC(=O)[C@@H](CCCNC(=N)N)NC(=O)[C@@H](C)NC(=O)[C@@H](CC(C)C)NC(=O)[C@@H](Cc1c[nH]c2ccccc12)NC(=O)[C@H](Cc1c[nH]c2ccccc12)NC(=O)[C@H](N)Cc1ccccc1)C(=O)N[C@H](C)C(=O)N[C@H](CCCCN)C(=O)N[C@H](CC(C)C)C(=O)N[C@@H](C(=O)N1CCC[C@@H]1C(=O)N[C@@H](C(=O)O)C(C)C)[C@H](C)O` [BCL-132] (H-[dF]W[dW][dL][dA][dR][dQ][dL][dA][dR][dL][dA][dA][dL][dA][dK][dL][dT][dP][dV]-OH; N-terminus and C-terminus assumed), with less than 2000 nM.
Same read-out and setting: then `CCCCCCCC(=O)N1CCC[C@@H]1C(=O)N[C@H](CO)C(=O)N[C@H](CC(=O)O)C(=O)NCC(=O)N[C@H](CCCNC(=N)N)C(=O)NCC(=O)N[C@H](Cc1c[nH]c2ccccc12)C(=O)N[C@H](Cc1c[nH]c2ccccc12)C(=O)N[C@H](CC(C)C)C(=O)N[C@@H](C(=O)N[C@H](CCCNC(=N)N)C(=O)N[C@H](CCC(N)=O)C(=O)N[C@H](CC(C)C)C(=O)N[C@H](C)C(=O)N[C@H](CCCNC(=N)N)C(=O)N[C@H](CC(C)C)C(=O)N[C@H](C)C(=O)N[C@H](CCC(N)=O)C(=O)N[C@H](CC(C)C)C(=O)N[C@H](C)C(=O)N[C@H](CCCCN)C(=O)N[C@H](CC(C)C)C(=O)N[C@@H](C(=O)N1CCC[C@@H]1C(=O)N[C@@H](C(=O)O)C(C)C)[C@H](C)O)C(C)C` [BCL-136a] (Octanoyl-[dP][dS][dD]G[dR]G[dW][dW][dL][dV][dR][dQ][dL][dA][dR][dL][dA][dQ][dL][dA][dK][dL][dT][dP][dV]-OH; C-terminus assumed), with less than 2000 nM; and `CC(C)C[C@@H](NC(=O)[C@@H](Cc1c[nH]c2ccccc12)NC(=O)[C@H](N)Cc1c[nH]c2ccccc12)C(=O)N[C@H](C)C(=O)N[C@H](CCCNC(=N)N)C(=O)N[C@H](CCC(N)=O)C(=O)N[C@H](CC(C)C)C(=O)N[C@H](CCC(=O)O)C(=O)N[C@H](CCCNC(=N)N)C(=O)N[C@H](CC(C)C)C(=O)N[C@H](C)C(=O)N[C@H](CCCNC(=N)N)C(=O)N[C@H](CC(C)C)C(=O)N[C@H](C)C(=O)N[C@H](CCCCN)C(=O)N[C@H](CC(C)C)C(=O)N[C@@H](C(=O)N1CCC[C@@H]1C(=O)N[C@@H](C(=O)O)C(C)C)[C@H](C)O` [BCL-86] (H-[dW][dW][dL][dA][dR][dQ][dL][dE][dR][dL][dA][dR][dL][dA][dK][dL][dT][dP][dV]-OH; N-terminus and C-terminus assumed), with less than 2000 nM.
The same measure, in the same setting: then `CC(C)C[C@@H](NC(=O)[C@@H](CCCN)NC(=O)[C@@H](C)NC(=O)[C@@H](CC(C)C)NC(=O)[C@@H](CCC(N)=O)NC(=O)[C@@H](CCCN)NC(=O)[C@@H](C)NC(=O)[C@@H](CC(C)C)NC(=O)[C@@H](Cc1c[nH]c2ccccc12)NC(=O)[C@@H](Cc1c[nH]c2ccccc12)NC(=O)CNC(=O)[C@@H](CCCNC(=N)N)NC(=O)CNC(=O)[C@@H](CC(=O)O)NC(=O)[C@@H](CO)NC(=O)[C@H]1CCCN1)C(=O)N[C@H](C)C(=O)N[C@H](CCC(N)=O)C(=O)N[C@H](CC(C)C)C(=O)N[C@H](C)C(=O)N[C@H](CCCN)C(=O)N[C@H](CC(C)C)C(=O)N[C@@H](C(=O)N1CCC[C@@H]1C(=O)N[C@@H](C(=O)O)C(C)C)[C@H](C)O` [BCL-137] (H-[dP][dS][dD]G[dR]G[dW][dW][dL][dA][dOrn][dQ][dL][dA][dOrn][dL][dA][dQ][dL][dA][dOrn][dL][dT][dP][dV]-OH; N-terminus and C-terminus assumed), with less than 2000 nM; and `CC(C)C[C@@H](NC(=O)[C@@H](C)NC(=O)[C@@H](C)NC(=O)[C@@H](CC(C)C)NC(=O)[C@@H](CCC(N)=O)NC(=O)[C@@H](CCCNC(=N)N)NC(=O)[C@@H](C)NC(=O)[C@@H](CC(C)C)NC(=O)[C@@H](Cc1c[nH]c2ccccc12)NC(=O)[C@H](Cc1c[nH]c2ccccc12)NC(=O)[C@H](N)Cc1ccccc1)C(=O)N[C@H](C)C(=O)N[C@H](CCC(N)=O)C(=O)N[C@H](CC(C)C)C(=O)N[C@H](C)C(=O)N[C@H](CCCCN)C(=O)N[C@H](CC(C)C)C(=O)N[C@@H](C(=O)N1CCC[C@@H]1C(=O)N[C@@H](C(=O)O)C(C)C)[C@H](C)O` [BCL-133] (H-[dF]W[dW][dL][dA][dR][dQ][dL][dA][dA][dL][dA][dQ][dL][dA][dK][dL][dT][dP][dV]-OH; N-terminus and C-terminus assumed), with less than 2000 nM; and `CC(C)C[C@@H](NC(=O)[C@@H](CCC(N)=O)NC(=O)[C@@H](C)NC(=O)[C@@H](CC(C)C)NC(=O)[C@@H](CCCNC(=N)N)NC(=O)[C@@H](C)NC(=O)[C@@H](CC(C)C)NC(=O)[C@@H](CCC(N)=O)NC(=O)[C@@H](CCCNC(=N)N)NC(=O)[C@@H](C)NC(=O)[C@@H](CC(C)C)NC(=O)[C@@H](Cc1c[nH]c2ccccc12)NC(=O)[C@H](N)Cc1c[nH]c2ccccc12)C(=O)N[C@H](C)C(=O)O` [BCL-12] (H-[dW][dW][dL][dA][dR][dQ][dL][dA][dR][dL][dA][dQ][dL][dA]-OH; N-terminus and C-terminus assumed), with greater than 80000 nM.
In turn, `CCCCCCCC(=O)N[C@H](Cc1c[nH]c2ccccc12)C(=O)N[C@H](Cc1c[nH]c2ccccc12)C(=O)N[C@H](CC(C)C)C(=O)N[C@@H](C(=O)N[C@H](CCCNC(=N)N)C(=O)N[C@H](CCC(N)=O)C(=O)N[C@H](CC(C)C)C(=O)N[C@H](C)C(=O)N[C@H](CCCNC(=N)N)C(=O)N[C@H](CC(C)C)C(=O)N[C@H](C)C(=O)N[C@H](CCC(N)=O)C(=O)N[C@H](CC(C)C)C(=O)N[C@H](C)C(=O)N[C@H](CCCCN)C(=O)N[C@H](CC(C)C)C(=O)N[C@@H](C(=O)N1CCC[C@@H]1C(=O)N[C@@H](C(=O)O)C(C)C)[C@H](C)O)C(C)C` [BCL-91b] (Octanoyl-[dW][dW][dL][dV][dR][dQ][dL][dA][dR][dL][dA][dQ][dL][dA][dK][dL][dT][dP][dV]-OH; C-terminus assumed) registered an EC50 of less than 2000 nM.
The same measure, in the same setting: then `CC(C)C[C@@H](NC(=O)[C@@H](Cc1c[nH]c2ccccc12)NC(=O)[C@H](N)Cc1c[nH]c2ccccc12)C(=O)N[C@H](C)C(=O)N[C@H](CCCNC(=N)N)C(=O)N[C@H](CCC(N)=O)C(=O)N[C@H](CC(C)C)C(=O)N[C@H](CCC(=O)O)C(=O)N[C@H](CCCNC(=N)N)C(=O)N[C@H](CC(C)C)C(=O)N[C@H](C)C(=O)N[C@H](CCCCN)C(=O)N[C@H](CC(C)C)C(=O)N[C@H](C)C(=O)N[C@H](CCCCN)C(=O)N[C@H](CC(C)C)C(=O)N[C@@H](C(=O)N1CCC[C@@H]1C(=O)N[C@@H](C(=O)O)C(C)C)[C@H](C)O` [BCL-90] (H-[dW][dW][dL][dA][dR][dQ][dL][dE][dR][dL][dA][dK][dL][dA][dK][dL][dT][dP][dV]-OH; N-terminus and C-terminus assumed), with 2000 to 10000 nM.
Still for that read-out and setting: then `CC(C)C[C@@H](NC(=O)[C@@H](Cc1c[nH]c2ccccc12)NC(=O)[C@H](N)Cc1c[nH]c2ccccc12)C(=O)N[C@H](C)C(=O)N[C@H](CCCNC(=N)N)C(=O)N[C@H](CCC(N)=O)C(=O)N[C@H](CC(C)C)C(=O)N[C@H](C)C(=O)N[C@H](CCCNC(=N)N)C(=O)N[C@H](CC(C)C)C(=O)N[C@H](CCCNC(=N)N)C(=O)N[C@H](CCC(N)=O)C(=O)N[C@H](CC(C)C)C(=O)N[C@H](C)C(=O)N[C@H](CCCCN)C(=O)N[C@H](CC(C)C)C(=O)N[C@@H](C(=O)N1CCC[C@@H]1C(=O)N[C@@H](C(=O)O)C(C)C)[C@H](C)O` [BCL-80] (H-[dW][dW][dL][dA][dR][dQ][dL][dA][dR][dL][dR][dQ][dL][dA][dK][dL][dT][dP][dV]-OH; N-terminus and C-terminus assumed), with less than 2000 nM.

For orientation: EC50 means the concentration needed to bring the measured effect to its halfway point. The low end stands for greater potency, the high end for weaker potency.
